Values quoted from earlier work as cited in article PMC6591635, “Advancing the Therapeutic Potential of Indoleamides for Tuberculosis” (Antimicrobial Agents and Chemotherapy, 2019).
Values after ≈ are worked out from the molar mass of the structure shown.

Tested on: M. tuberculosis H37Rv
Details: M. tuberculosis H37Rv; concentration used as 1× MIC; cited from earlier work

## Cc1cc(C)c2cc(C(=O)NC3CCCCCCC3)[nH]c2c1 [compound 1]
  MIC (1× MIC): 4 ng/mL (≈ 0.0134 µM)
